US20220274927A1, “MEMBRANE-ACTIVE ANTI-BACTERIAL COMPOUNDS AND USES THEREOF” (Trustees of Dartmouth College, priority 2019, published 2022)
In brackets after ≈: the same amount, converted by molar mass. Where two headings read alike, the source gives them in different places.

Legend:
[1] = system: methicillin-resistant S. aureus (FPR3757); test: MIC against clinical MRSA strain FPR3757 in Mueller-Hinton broth (CLSI); type: cell-based, Staphylococcus aureus; settings: MRSA clinical strain FPR3757, Mueller-Hinton broth, CLSI guidelines, complete inhibition of observable growth
Text: The first set of compounds evaluated were analogs at the C-7 and C-8 positions of the initial quinolone hit DNAC-2 since the other HTS hits identified (data not shown) were substituted at these positions (Table 1). Applicants first explored modification at the C-7 position with a small series of electron-donating and withdrawing substituents. […] However, analogs containing electron donating groups at C-7 including ethyl 7, benzyloxy 8, methoxy 9 and methylthio 10 are weakly active displaying MICs of 320-640 μg/mL indicating electron-donating substituents at C-7 are poorly tolerated. […] The C-8 position was evaluated with trifluoromethyl 4 and trifluoromethoxy 5 containing the optimal C-7 substituents. Both 4 and 5 are equipotent to the corresponding C-7 analogs 2 and 3 indicating some flexibility of the quinolone scaffold.

[2] = system: S. aureus membranes (versus erythrocyte membranes); test: in vitro; type: cell-based, sheep; settings: sheep
Method: (§1) FIG. 8 illustrates percent hemolysis analysis of sheep erythrocytes. Concentration-dependent hemolysis was measured by monitoring the optical density (OD)540 of PBS-washed sheep erythrocytes. Complete hemolysis (100%) was confirmed by treatment of erythrocytes with Triton X-100. Data points represent the mean±SD of triplicate experiments.
(§2) The macromolecular synthesis assay, TEM, and FM experiments were all consistent with membrane disruption. […] The high membrane selectivity of the 5-aminoquinolin-4-ones in this assay is impressive and is in accordance with the observed therapeutic index (CC50/MIC).

sheep erythrocytes = test: in vitro; type: cell-based; settings: sheep, 32 μg/mL
Method: as §1, §2

[3] = Staphylococcus aureus, MRSA, read-out: MIC

| Compound | MIC [1, 3] [mg/L] | selectivity ratio [2] | hemolysis (sheep erythrocytes) | MIC [1] [mg/L] |
| --- | --- | --- | --- | --- |
| O=c1cc(C(F)(F)F)[nH]c2cc(C(F)(F)F)cc(Nc3ccc(Cl)c(Cl)c3)c12 [Compound 108] | < 0.06 | > 500 |  |  |
| O=c1cc(C(F)(F)F)[nH]c2cc(C(F)(F)F)cc(NC3CCC(C(F)(F)F)CC3)c12 (stereo not shown) [Compound 117] | < 0.06 | > 500 | None of the compounds except 76, displayed any hemolysis |  |
| O=c1cc(C(F)(F)F)[nH]c2cc(Nc3ccc(C(F)(F)F)cn3)cc(C(F)(F)F)c12 [Compound 122] |  |  |  | 4 (≈ 9.07 µM) |
| CCc1ccc2c(=O)cc(C(F)(F)F)[nH]c2c1 [Compound 7] | 320 to 640 (≈ 1330 to 2650 µM) |  |  | 320 (≈ 1330 µM) |
| FC(F)(F)Oc1cccc(Nc2cc(C(F)(F)F)nc3c(OC(F)(F)F)cccc23)c1 [Compound 43] |  |  |  | 1 (≈ 2.19 µM) |
| FC(F)(F)c1ccc2c(Nc3nccs3)cc(C(F)(F)F)nc2c1 [Compound 55] | 2 (≈ 5.51 µM) |  |  | 1 to 2 |
| COC(=O)c1cc(Nc2cc(C(F)(F)F)nc3cc(C(F)(F)F)ccc23)ccn1 [Compound 54] | > 32 |  |  | >32 |
